Data as given in paper PMC9266460, “KSK-74: Dual Histamine H3 and Sigma-2 Receptor Ligand with Anti-Obesity Potential” (International Journal of Molecular Sciences, 2022).

Assays:
[1] = test system: peritoneal adipose tissue; experiment: Leptin, resistin, IL-6 and MCP-1 levels in adipose tissue (ELISA); assay type: in vivo, female Wistar rats; conditions: for leptin levels in adipose tissue: vs palatable diet + vehicle unless worded otherwise
Method: The frozen peritoneal adipose tissue was weighed, and homogenates were prepared by homogenizing 1 g of tissue in 4 mL of 0.1 M phosphate buffer, pH 7.4, using the IKA-ULTRA-TURRAX T8 homogenizer. The adipose tissue homogenates were then used for biochemical assays.
To determine the levels of leptin, resistin, IL-6, and MCP-1 in adipose tissue, the standard ELISA Kit (Cat. No E0561Ra, Cat. No E0211Ra, Cat. No E0135Ra, Cat. No E0193Ra, Bioassay Technology Laboratory, Shanghai, China) was used. To determine the levels of protein, a standard spectrophotometric test (Cat. No 1-008-B210, Biomaxima S.A. Lublin, Poland) was used.

[2] = target: sigma-1 receptor; parameters: method as in PMID 34908391; conditions: Figure 1; read-out: σ1R Ki; cited from earlier work
[3] = Pharmacokinetic study, single i.p. dose, plasma LC-MS/MS; assay type: in vivo, rat; conditions: for Tmax / Cmax / CL/F / MRT / half-life / k el / Vd/F: ip; for Tmax / Cmax / CL/F / MRT / half-life / k el / Vz/F (volume of distribution) / Vd/F: rat plasma, single i.p. dose of 10 mg/kg; for Cmax: n = 3, non-compartmental; for CL/F: read-out: CLS/F (clearance) (converted); for MRT: read-out: MRT (mean residence time); for half-life: read-out: t0.5λz (half-life) (converted); for k el: read-out: λz (terminal elimination rate constant) (converted); for Vz/F (volume of distribution) / Vd/F: 10 mg/kg; for Vd/F: rat, plasma, read-out: Vz/F (volume of distribution); for time at which maximal plasma concentration was attained (first sampling point): single i.p. dose of 10 mg/kg b.w.
Method: Six rats divided into two experimental groups were used in pharmacokinetic experiments. Three days before the experiment, the rats’ jugular vein was cannulated allowing for multiple blood sampling from a single animal. The investigated compounds were administered i.p. at a single dose of 10 mg/kg. Blood samples (approximately 300 µL) were collected in Eppendorf tubes containing heparin at 5, 15, 30, 60, 120, 240, and 360 min after dosing. Plasma was harvested by centrifuging at 5000× g for 10 min and stored at −30 °C until bioanalysis.
Plasma concentrations of KSK-60 or KSK-74 were measured using the liquid chromatography tandem mass spectrometry (LC-MS/MS) method. The samples (50 μL) were deproteinized in a 1:3 (v/v) ratio with acetonitrile containing an internal standard (IS—pentoxifylline), briefly vortexed, and then centrifuged for 10 min at a speed of 8000× g (Eppendorf miniSpin centrifuge). The supernatant was transferred to autosampler vials and a sample volume of 10 μL was injected into the LC-MS/MS system.
Chromatographic separation was performed on the analytical column XBridge™ C18 (3 × 50 mm, 5 µm, Waters, Dublin, Ireland) using the Agilent 1100 HPLC system (Agilent Technologies, Waldbronn, Germany). The mobile phase containing 0.1% formic acid in acetonitrile and 0.1% formic acid in water was run at 0.3 mL/min in gradient mode. Mass spectrometric detection was performed on an Applied Biosystems MDS Sciex (Concord, ON, Canada) API 2000 triple quadrupole mass spectrometer. Electrospray ionization (ESI) in the positive ion mode was used for ion production. The tandem mass spectrometer was operated at unit resolution in the selected reaction monitoring mode (SRM), monitoring the transitions of the protonated molecular ions m/z 396 to 107 (CE 80 V) for KSK-60, m/z 424 to 107 (CE 80 V) for KSK-74, and m/z 279 to 181 (CE 55 V) for IS. Data acquisition and processing were performed using the Applied Biosystems Analyst version 1.6 software. The calibration curves were constructed by plotting the ratio of the peak area of the studied compound to IS versus drug concentration, and generated by weighted (1/x · x) linear regression analysis. The validated quantitation ranges were from 1 to 2000 ng/mL. The calculated accuracy and precision were within the ranges proposed by the guidelines for the validation of bioanalytical methods (FDA, EMA). No significant matrix effect was observed and there were no stability-related problems during the routine analysis of the samples.
Pharmacokinetic parameters were calculated by employing a non-compartmental approach using Monolix version 2019R1 (Antony, France: Lixoft SAS, 2019) software. The area under the mean plasma concentration versus time curve extrapolated to infinity (AUC0-inf) was estimated using the log/linear trapezoidal rule. AUMC0-inf was estimated by calculating the total area under the first-moment curve by combining the trapezoid calculation of AUMC0-t and the extrapolated area. The mean residence time (MRT) was calculated from AUMC0-inf/AUC0-inf. The terminal rate constant (λz) was calculated by log-linear regression of the drug concentration data in the terminal phase, and the terminal half-life (t1/2) was calculated as 0.693/λz. Clearance (CL/F) was estimated from the administered dose divided by AUC0-inf. The apparent volume of distribution during the terminal phase (Vz/F) was calculated from (CL/F)/λz.

[4] = test system: rats fed a palatable diet; experiment: Plasma triglyceride and corticosterone levels in the model of excessive eating; assay type: in vivo, female Wistar rats; conditions: KSK 10 mg/kg, phentermine 7 mg/kg
Method: Blood was collected from the left carotid artery and then centrifuged at 600× g (15 min, 4 °C) to obtain plasma.
To determine plasma triglyceride levels, standard enzymatic and spectrophotometric tests (Cat. No 1-053-A150, Biomaxima S.A., Lublin, Poland) were used. The ELISA Kit (Item No. 501320, Cayman Chemical, Ann Arbor, MI, USA) was used to determine corticosterone levels in plasma.

[5] = target: H3 histamine receptor (Homo sapiens, UniProt Q9Y5N1); experiment: Intrinsic activity at H3R, Aequoscreen assay; assay type: cell-based
Sequence of H3 histamine receptor (Q9Y5N1 whole entry): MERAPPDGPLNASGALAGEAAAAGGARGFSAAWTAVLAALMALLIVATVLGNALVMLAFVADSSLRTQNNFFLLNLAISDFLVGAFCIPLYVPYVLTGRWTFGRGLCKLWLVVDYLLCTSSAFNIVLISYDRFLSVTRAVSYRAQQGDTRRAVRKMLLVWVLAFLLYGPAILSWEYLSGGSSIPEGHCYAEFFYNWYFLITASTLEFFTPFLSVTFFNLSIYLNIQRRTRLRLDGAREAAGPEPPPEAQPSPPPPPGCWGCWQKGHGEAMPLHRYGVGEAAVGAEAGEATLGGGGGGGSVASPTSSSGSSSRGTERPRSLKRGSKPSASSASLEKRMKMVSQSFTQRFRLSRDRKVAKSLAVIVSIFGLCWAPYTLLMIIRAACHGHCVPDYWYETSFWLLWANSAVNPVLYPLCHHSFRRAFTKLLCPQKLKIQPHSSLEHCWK
Method: Intrinsic activity studies were performed using two methods, Aequoscreen and LANCE Ultra cAMP assays, according to the manufacturer of the ready-to-use cells with stable expressions of the H3 histamine receptor (Perkin Elmer).
The Aequoscreen technology uses recombinant cell lines with stable co-expression of apoaequorin and a GPCR as a system to detect activation of the receptor, following the addition of an agonist, via the measurement of light emission. For the measurement, cells (frozen, ready to use) were thawed and resuspended in 10 mL of assay buffer containing 5 μM of coelenterazine h. The cell suspension was then placed in a 10 mL Falcon tube, fixed on a rotating wheel, and incubated overnight at RT° in the dark. Cells were diluted with assay buffer at 5000 cells/20 µL. Agonistic ligands 2 × (50 μL/well), diluted in assay buffer, were prepared in 1/2 area white polystyrene plates, and 50 μL of cell suspension was dispersed on the ligands using the injector. The light emission was recorded for 20 s. Cells were incubated with antagonist for 15 min at RT°. Then, 50 µL of agonist (final concentration equal to 3 × EC80) was injected into the mixture of cells and antagonist and light emission was recorded for 20 s.

[6] = KSK 10 mg/kg i.p., phentermine 7 mg/kg

| Structure (SMILES) | leptin levels in adipose tissue [1, 6] | Ki [2] [nM] | Tmax [3] [min] | Cmax [3] [ng/mL] | CL/F [3] [mL/min/kg] | MRT [3] [h] | half-life [3] [h] | k el [3] [s⁻¹] | Vz/F (volume of distribution) [3] [L/kg] | Vd/F [3] [L/kg] | time at which maximal plasma concentration was attained (first sampling point) [3] [min] | plasma triglyceride levels vs palatable diet + vehicle [4] | IC50 [5] [nM] | IL-6 levels in adipose tissue vs palatable diet + vehicle ([1]; 10 mg/kg) | MCP-1 level in adipose tissue vs palatable diet + vehicle ([1]; 10 mg/kg b.w.) | resistin levels in adipose tissue vs palatable diet + vehicle [1, 6] |
| --- | --- | --- | --- | --- | --- | --- | --- | --- | --- | --- | --- | --- | --- | --- | --- | --- |
| CCC(=O)c1ccc(OCCCCCCN2CCN(c3ccncc3)CC2)cc1 [KSK-60] | maintained leptin levels at the same level as rats in the control group fed standard feed | 248 | 4.98 | 109 | 1170 | 3.28 | 2.7 | 7.22e-05 | 272.63 | 272 | 5 | No differences in plasma triglyceride levels | 1.49 ± 0.2 |  |  |  |
| CCC(=O)c1ccc(OCCCCCCCCN2CCN(c3ccncc3)CC2)cc1 [KSK-74] | reduced levels | 274 | 4.98 | 105 | 2180 | 2.45 | 2.71 | 6.94e-05 | 513.14 | 513 | 5 | lower plasma triglyceride levels | 31.9 ± 0.5 | reduced | decreased the level of MCP-1 | reduced levels |
